Experimental data published in PubChem BioAssay AID2296 (NMMLSC, 2010).

biological target: Regulator of G-protein signaling 7 (Homo sapiens) (UniProt P49802); test: RGS7-Galphao binding modulators, SAR follow-up, biochemical, multiplexed bead flow cytometry, SAR compounds (AID 2296); settings: bead-based flow cytometry, AF488-Galphao binding to RGS7
Sequence (P49802 whole entry, looked up): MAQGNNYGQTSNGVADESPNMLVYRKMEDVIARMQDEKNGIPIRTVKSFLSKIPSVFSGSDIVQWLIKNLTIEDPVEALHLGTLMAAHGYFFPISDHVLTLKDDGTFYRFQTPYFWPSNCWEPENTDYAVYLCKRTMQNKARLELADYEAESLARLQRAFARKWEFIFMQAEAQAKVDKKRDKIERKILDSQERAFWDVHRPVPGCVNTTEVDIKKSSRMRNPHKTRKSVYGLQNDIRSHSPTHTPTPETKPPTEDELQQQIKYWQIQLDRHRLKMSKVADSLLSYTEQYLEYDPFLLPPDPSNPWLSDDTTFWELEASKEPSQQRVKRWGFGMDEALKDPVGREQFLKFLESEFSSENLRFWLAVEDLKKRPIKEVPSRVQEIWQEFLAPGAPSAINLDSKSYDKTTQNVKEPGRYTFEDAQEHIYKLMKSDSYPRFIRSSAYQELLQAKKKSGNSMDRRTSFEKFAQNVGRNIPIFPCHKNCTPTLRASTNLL

| Compound | EC50 [nM] |
| --- | --- |
| NS(=O)(=O)c1ccc(N/N=C/c2ccc(O)c(O)c2O)c([N+](=O)[O-])c1 | 141 |

same assay, conditions: bead-based flow cytometry, AF488-Galphao binding to RGS7; measured here: Ki from EC50 fit

| Compound | Ki [nM] |
| --- | --- |
| NS(=O)(=O)c1ccc(N/N=C/c2ccc(O)c(O)c2O)c([N+](=O)[O-])c1 | 120 |
| CN1CCN(C2=C(Cl)C(=O)C(c3cnc(N4CCCCC4)s3)=C(Cl)C2=O)CC1 | 70 |
| CC1(C)OC(=O)C(=Cc2ccc(-c3ccc(S(N)(=O)=O)cc3)o2)C(=O)O1 | 1600 |
| Cc1[nH]n(-c2ccccc2)c(=S)c1C=NCCCN=Cc1c(C)[nH]n(-c2ccccc2)c1=S | 1870 |
| O=C(Cc1csc(N2CCOCC2)n1)N/N=C/c1ccc(O)c(O)c1O | 360 |
| CCC(=O)NC(c1ccc(C)cc1)c1cc([N+](=O)[O-])c2cccnc2c1O (stereo not drawn) | 3750 |
| Nc1c(C(=O)NCC2CCCO2)sc2nc3c(c(-c4ccco4)c12)CC/C3=C/c1ccco1 (stereo not drawn) | 120 |
| CCN(CC)S(=O)(=O)c1cccc(C(=O)N/N=C/c2ccc(O)c(O)c2O)c1 | 320 |
| O=C1C(Cl)=C(N2CCCCC2)C(=O)C(Cl)=C1c1cnc(N2CCCCC2)s1 | 130 |
| CN=c1scc(C)n1/N=C/c1ccc(O)c(O)c1O | 210 |
| COc1ccc(C2=CC(=O)C=CC2=O)cc1 | 300 |
| CCN=c1scc(C)n1/N=C/c1ccc(O)c(O)c1O | 380 |
